Results taken from patent US20220211678A1, “USES OF (+)-A-DIHYDROTETRABENAZINE IN METHODS OF TREATING MOVEMENT DISORDER” (ADEPTIO PHARMACEUTICALS LIMITED, priority 2017, published 2022).

Test: Plasma levels of (+)-α-dihydrotetrabenazine up to 7 hours after oral dosing of human volunteers (Example 1B)
Type: in vivo
Details: 7.5 mg, 7.5 mg oral
Procedure: Volunteers 1 and 2 were the same as volunteers 1 and 2 in Example 1A described above. […] Blood sample were taken from all volunteers 1 to 3 at 2, 4, 6 and 7 hours after drug administration. In addition, in all volunteers PET scans were initiated at 6 hours after drug administration and these were stopped at 7 hours after drug administration.

For `COc1cc2c(cc1OC)[C@H]1C[C@@H](O)[C@H](CC(C)C)CN1CC2` [(+)-α-dihydrotetrabenazine, (R,R,R)-3-isobutyl-9,10-dimethyloxy-1,3,4,5,7,11b-hexahydro-2H-pyrido[2,1-a]isoquinolin-2-ol], which concentration at 2 h (subject 1 (112 kg)) is on record?
The concentration at 2 h was 6.01 ng/mL.

And the concentration at 2 h (subject 2 (76 kg))?
Its concentration at 2 h is 17.5 ng/mL.

What about the concentration at 2 h (subject 3 (76 kg)) of the same compound?
The concentration at 2 h was 7.92 ng/mL.

And the concentration at 4 h (subject 1 (112 kg))?
Its concentration at 4 h is 4.54 ng/mL.

What about the concentration at 4 h (subject 2 (76 kg)) of the same compound?
The concentration at 4 h was 4.54 ng/mL.

What about the concentration at 4 h (subject 3 (76 kg)) of the same compound?
The concentration at 4 h was 5.57 ng/mL.

And the concentration at 6 h (subject 1 (112 kg))?
Its concentration at 6 h is 3.65 ng/mL.

And the concentration at 6 h (subject 2 (76 kg))?
The concentration at 6 h was 3.65 ng/mL.

And the concentration at 6 h (subject 3 (76 kg))?
Its concentration at 6 h is 4.84 ng/mL.

And the concentration at 7 h (subject 1 (112 kg))?
The concentration at 7 h was 8.7 ng/mL.

What about the concentration at 7 h (subject 2 (76 kg)) of the same compound?
Its concentration at 7 h is 11.7 ng/mL.

What about the concentration at 7 h (subject 3 (76 kg)) of the same compound?
The concentration at 7 h was 12.8 ng/mL.
